Results: paper PMC3729023 (Journal of the American Chemical Society, 2012)

How the values were obtained:
[1] = biological target: Src; assay: Src kinase assay; assay type: biochemical; details: read-out: IC50 (inactive up to); Src pretreated 30 min in the presence of 0.25 mM ATP prior to initiating the kinase reaction
[2] = biological target: endogenous Lck (Homo sapiens, UniProt P06239); assay: Competitive profiling with probe 1 in Jurkat cells: Lck; assay type: cell-based; details: inhibitor at 300 nM, then 1 (1 µM, 15 min)
endogenous Lck, sequence (P06239 whole entry): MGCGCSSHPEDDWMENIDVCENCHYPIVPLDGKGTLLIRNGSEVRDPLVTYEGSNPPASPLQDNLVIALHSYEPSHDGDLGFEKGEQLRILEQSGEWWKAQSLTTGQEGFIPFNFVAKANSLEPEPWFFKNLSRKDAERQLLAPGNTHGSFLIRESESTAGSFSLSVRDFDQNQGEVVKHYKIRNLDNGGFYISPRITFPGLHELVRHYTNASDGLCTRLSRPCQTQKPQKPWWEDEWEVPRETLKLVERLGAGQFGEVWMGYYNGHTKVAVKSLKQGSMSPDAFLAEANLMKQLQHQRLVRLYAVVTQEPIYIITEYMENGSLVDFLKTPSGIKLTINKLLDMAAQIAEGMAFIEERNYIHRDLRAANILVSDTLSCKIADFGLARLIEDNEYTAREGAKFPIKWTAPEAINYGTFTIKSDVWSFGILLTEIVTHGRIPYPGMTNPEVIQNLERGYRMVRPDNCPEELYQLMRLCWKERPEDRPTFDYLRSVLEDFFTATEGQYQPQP

[3] = biological target: endogenous Blk (Homo sapiens, UniProt P51451); assay: Competitive profiling with probe 1 in Jurkat cells: Blk; assay type: cell-based; details: inhibitor at 300 nM, then 1 (1 µM, 15 min)
endogenous Blk, sequence (P51451 whole entry): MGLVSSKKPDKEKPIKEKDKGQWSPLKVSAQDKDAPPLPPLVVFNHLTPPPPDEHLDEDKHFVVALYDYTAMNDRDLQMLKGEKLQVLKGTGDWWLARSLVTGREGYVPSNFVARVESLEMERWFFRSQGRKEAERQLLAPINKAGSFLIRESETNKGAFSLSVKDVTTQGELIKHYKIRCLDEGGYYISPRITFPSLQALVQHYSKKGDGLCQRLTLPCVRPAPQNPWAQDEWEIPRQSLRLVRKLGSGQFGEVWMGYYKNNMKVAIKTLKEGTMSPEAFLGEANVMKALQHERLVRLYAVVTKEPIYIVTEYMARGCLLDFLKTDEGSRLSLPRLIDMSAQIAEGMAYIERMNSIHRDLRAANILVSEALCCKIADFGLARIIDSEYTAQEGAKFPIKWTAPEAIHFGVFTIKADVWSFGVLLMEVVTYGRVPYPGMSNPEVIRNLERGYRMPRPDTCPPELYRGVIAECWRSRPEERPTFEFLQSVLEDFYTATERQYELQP

[4] = biological target: endogenous Fyn (Homo sapiens, UniProt P06241); assay: Competitive profiling with probe 1 in Jurkat cells: Fyn; assay type: cell-based; details: inhibitor at 300 nM, then 1 (1 µM, 15 min)
endogenous Fyn, sequence (P06241 1-534 isoform P06241-2): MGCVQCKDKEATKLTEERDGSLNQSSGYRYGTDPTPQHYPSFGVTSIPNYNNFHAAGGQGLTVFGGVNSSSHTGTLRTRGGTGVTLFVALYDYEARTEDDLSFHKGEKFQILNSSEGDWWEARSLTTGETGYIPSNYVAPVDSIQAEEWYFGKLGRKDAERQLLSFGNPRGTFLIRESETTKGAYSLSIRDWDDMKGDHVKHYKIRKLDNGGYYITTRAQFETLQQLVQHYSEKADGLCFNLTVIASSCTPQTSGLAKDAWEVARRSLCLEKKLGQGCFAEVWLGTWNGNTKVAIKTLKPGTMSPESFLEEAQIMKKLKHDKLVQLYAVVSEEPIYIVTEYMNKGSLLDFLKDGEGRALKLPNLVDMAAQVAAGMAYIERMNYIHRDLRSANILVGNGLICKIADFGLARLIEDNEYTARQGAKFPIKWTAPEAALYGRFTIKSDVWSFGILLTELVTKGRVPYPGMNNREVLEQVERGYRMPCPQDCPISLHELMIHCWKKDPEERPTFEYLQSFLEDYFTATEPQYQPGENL

[5] = biological target: endogenous Src (Homo sapiens, UniProt P12931); details: Jurkat cells, inhibitor at 300 nM, then 1 (1 µM, 15 min)
endogenous Src, sequence (P12931 whole entry): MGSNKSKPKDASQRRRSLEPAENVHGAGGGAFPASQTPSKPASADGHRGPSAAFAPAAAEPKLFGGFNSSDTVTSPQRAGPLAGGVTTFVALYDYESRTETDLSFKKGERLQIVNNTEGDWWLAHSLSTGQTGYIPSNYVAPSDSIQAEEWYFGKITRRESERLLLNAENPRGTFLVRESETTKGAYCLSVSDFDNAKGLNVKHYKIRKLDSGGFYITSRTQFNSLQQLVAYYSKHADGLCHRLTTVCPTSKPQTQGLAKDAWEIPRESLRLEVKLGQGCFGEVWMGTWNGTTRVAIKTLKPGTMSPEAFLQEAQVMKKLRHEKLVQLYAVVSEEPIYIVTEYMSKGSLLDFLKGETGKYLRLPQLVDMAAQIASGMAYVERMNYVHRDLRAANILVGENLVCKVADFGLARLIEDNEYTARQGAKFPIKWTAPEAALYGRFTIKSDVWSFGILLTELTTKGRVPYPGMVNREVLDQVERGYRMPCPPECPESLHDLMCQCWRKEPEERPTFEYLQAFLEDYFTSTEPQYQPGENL

[6] = in humans; cited from earlier work

Row | SMILES | IC50 [1] [µM] | labeling of endogenous Lck by 1 [2] | labeling of endogenous Blk by 1 [3] | labeling of endogenous Fyn by 1 [4] | labeling of endogenous Src by 1 [5] | mean steady-state concentrations [6] [nM]
1 | Nc1ncnc2c1ncn2[C@@H]1O[C@H](COC(=O)c2ccc(S(=O)(=O)F)cc2)[C@@H](O)[C@H]1O [FSBA, p-fluorosulfonylbenzoyl adenosine] | > 10 |  |  |  |  | 
2 | Cc1ccc(C(=O)Nc2ccc(CN3CCN(C)CC3)c(C(F)(F)F)c2)cc1C#Cc1cnc2cccnn12 [ponatinib] |  | abrogated labeling | abrogated labeling | unaffected | unaffected | 75 to 180
